How the values were obtained:
Format in all cases: cell-based
IL-1β = IL-1β production in LPS-stimulated THP-1 macrophages (ELISA); conditions: Homo sapiens, 1 h pretreatment, then LPS 1 μg/mL 24 h; for inhibition at 8 µg/mL: 8 μg/mL; for inhibition at 4 µg/mL: 4 μg/mL
Procedure: (§1) To determine the effects of the AMTs 1–8 on the production of TNF-α, IL-6, and IL-1β, THP-1 macrophaghes were pretreated with the compounds and then stimulated with LPS, as the triggering factor to stimulate the cytokines production. The levels of pro-inflammatory cytokines in the cell supernatants were determined using the enzyme-linked immunosorbent (ELISA) kits.
(§2) Figure 2 Meroterpenoids 1–8 inhibit LPS-induced expression of TNF-α, IL-6, and IL-1β in THP-1 macrophages (A, B, and C) respectively. Cells were pretreated for 1 h with the compounds (1, 2, 3, 4, 7, and 8 at 8 μg/mL; 5 and 6 at 4 μg/mL), followed by 24 h treatment with LPS. TNF-α (A), IL-6 (B) and IL-1β (C) contents in the culture medium were determined by ELISA. Dexametasone (DEX) was used as positive control. Data are expressed as means ± SE from three independent experiments. Statistical significance is indicated (+++p < 0.001 and +++< 0.01 vs. Control; respectively * p < 0.05, ** p < 0.01, *** p < 0.001 vs. Control + LPS).
(§3) THP-1 cells were plated at a density of 3 × 10^5 cells/mL in 24-well plates and incubated with PMA (0.2 μM) for 72 h in a humidified atmosphere of 5% CO2 at 37 °C. The macrophages were pre-treated for 1 h with AMTs 1–8 (8 μg/mL for compounds 1, 2, 3, 4, 7, and 8, and 4 μg/mL for 5 and 6) and then stimulated with lipopolysaccharide (LPS, 1 μg/mL) for another 24 h. Dexamethasone (Dex) was used as positive reference compound at 1 μM. The viability of cells was greater than 95% throughout the experiment. The levels of TNF-α, IL-6, and IL-1ß in supernatants were measured with enzyme-linked immune-sorbent assay (ELISA) kits (Diaclone GEN-PROBE, Besançon cedex, France) according to the manufacturer’s protocols. The absorbance was determined at 450 nm using a microplate reader. To calculate the concentration of cytokines, a standard curve was constructed using serial dilutions of cytokine standards provided with the kit.

[1] = tested on: human lung adenocarcinoma A549 cells; experiment: Cytotoxicity against lung cancer cells A549 (MTT assay); conditions: for IC50 / viability at 50 µg/mL: Homo sapiens, A549, MTT; for IC50: 72 h of treatment, mean ± SE; for Selectivity Index SI: SI = IC50 value for normal cells (MRC-5)/IC50 value for cancer cells (A549); for viability at 50 µg/mL: 50 μg/mL, 72 h, read-out: cell viability of cancer cells
Procedure: The effect of the AMTs 1–8 on cell viability was investigated in the human lung cancer cell line A549. […] It has been reported that compounds with SI value higher or equal to 2.0 are potentially selective. […] It is worth noting that after treatment with 50 μg/mL of these two AMTs, the cell viability was lower than 15% for cancer cells and higher than 55% for normal cells.
Figure 4 Effects of different concentrations of meroterpenoids 1–8 on the viability of human lung cancer cell line A549 and the human fetal lung fibroblastic MRC-5 cells, using MTT assay after 72 h of treatment. Data are mean ±SE of three independent experiments. * p < 0.05, ** p < 0.01 and […] between the two cell lines.
Cell proliferation was evaluated by a modified MTT assay, which measures the mitochondrial dehydrogenase activity. A total of 5 × 10^3 cells/well (MRC-5 cells) and 3 × 10^3 cells/well (A549 cells) were cultured in a 96-well plate for 24 h. Then, treatments were added to the cell culture. After 72 h of incubation, the medium was removed and 125 µL of MTT (1 mg/mL in medium) was added to each well and incubated for 4 h. Next, 80 µL of 20% sodium dodecyl sulphate (SDS) was added and incubated for 5 h at 37 °C. The optical density of each well was measured at 540 nm (Synergy HT multiwell plate spectrophotometer reader, BioTek Instruments Inc., Winooski, VT, USA) to quantify cell viability. Cell viability (%) was calculated according to the following formula: % viability = (absorbance of compounds treated cells/absorbance of control cells) × 100. The degree of selectivity of the compounds was expressed by its SI value. Each SI value was calculated using the formula: SI = IC50 normal cell/IC50 cancer cell.

TNF-α = TNF-α production in LPS-stimulated THP-1 macrophages (ELISA); conditions: Homo sapiens, 1 h pretreatment, then LPS 1 μg/mL 24 h; for inhibition at 8 µg/mL: 8 μg/mL; for inhibition at 4 µg/mL: 4 μg/mL
Procedure: as §1, §2, §3

Structure (SMILES)	inhibition at 8 µg/mL (IL-1β)	IC50 [1]	Selectivity Index SI [1]	inhibition at 8 µg/mL (TNF-α)	viability at 50 µg/mL [1]	inhibition at 4 µg/mL (IL-1β)	inhibition at 4 µg/mL (TNF-α)
COc1c(C)cc(O)cc1C/C=C(\C)CC(=O)/C=C(/C)CCCC(C)(O)C(=O)/C=C/C(C)(C)O (stereo not drawn) [Compound 1, usneoidone Z]	74.6%	8.68 ± 0.15 µg/mL	1.22	73.1%	–	–	–
COc1c(C)cc(O)cc1C/C=C(\C)CC(=O)/C=C(\C)CCCC(C)(O)C(=O)/C=C/C(C)(C)O (stereo not drawn) [Compound 2, 11-hydroxy-1’-O-methylamentadione]	84.4%	6.61 ± 0.38 µg/mL	1.30	64.1%	–	–	–
COc1c(C)cc(O)cc1C/C=C(\C)CC(=O)/C=C(\C)CCCC(C)=O [Compound 3, cystomexicone B]	35.3%	24.4 ± 1.71 µg/mL	2.12	57.1%	< 15%	–	–
COc1c(C)cc(O)cc1C/C=C(\C)CC(=O)/C=C(/C)CCCC(C)=O [Compound 4, cystomexicone A]	–	21 ± 1.79 µg/mL	2.78	42.2 to 43.3%	< 15%	–	–
COc1c(C)cc(O)cc1C/C=C(\C)CC(=O)/C=C(/C)CCCC(C)C(=O)/C=C/C(C)(C)O (stereo not drawn) [Compound 5, 6-cis-amentadione-1′-methyl ether]	–	4.56 ± 0.21 µg/mL	1.83	–	–	86%	55.3%
COc1c(C)cc(O)cc1C/C=C(\C)CC(=O)/C=C(\C)CCCC(C)C(=O)/C=C/C(C)(C)O (stereo not drawn) [Compound 6, amentadione-1′-methyl ether]	–	6.19 ± 0.25 µg/mL	1.43	–	–	61.1%	42.2 to 43.3%
COc1c(C)cc(O)cc1/C=C/C(C)(O)CC(=O)/C=C(/C)CCCC(C)C(=O)/C=C/C(C)(C)O (stereo not drawn) [Compound 7, cystodione A]	44.9%	9.31 ± 0.33 µg/mL	1.55	42.2 to 43.3%	–	–	–
COc1c(C)cc(O)cc1/C=C/C(C)(O)CC(=O)/C=C(\C)CCCC(C)C(=O)/C=C/C(C)(C)O (stereo not drawn) [Compound 8, cystodione B]	44.6%	13.6 ± 0.55 µg/mL	1.28	52.6%	–	–	–

— publication PMC7230911, “Meroterpenoids from the Brown Alga Cystoseira usneoides as Potential Anti-Inflammatory and Lung Anticancer Agents” (Marine Drugs, 2020)
